Measurements reported in US20030109552A1, “Use of insulin sensitisers for treating renal diseases” (SmithKline Beecham p.l.c., priority 1994, published 2003).

Tests used:
Assay type in all cases: in vivo, rat
obese Zucker fa/fa rats = assay: Renal histopathology in obese Zucker fa/fa rats, 3 months dietary administration; parameters: key to Chronic Nephropathy (histopathological severity, kidney): 0: None seen; ±: Minimal; +: Mild; ++: Moderate; +++: Marked
Method: Obese Zucker rats are known to develop chronic nephropathy in addition to hyperlipidaemia, hyperinsulinaemia and peripheral insulin resistance (Kasiske et al 1985).
5-[4-[2-(N-methyl-N-(2-pyridyl)amino)ethoxy]benzyl]thiazolidine-2,4-dione (herein after referred to as ‘test compound’) was administered to 2-3 month old obese Zucker fa/fa rats by dietary administration to provide a daily dose over a period of 3 months ranging from 2.0-7.0 μmole/kg body weight. A group of age-matched obese Zucker fa/fa rats were given the same diet without the addition of the test compound, as was a group of lean Fa/? rats. At the end of the study, all of the control Zucker fa/fa rats had chronic nephropathy which involved dilated tubules, atrophied or hyperplastic tubular epithelial cells, thickened tubular basement membranes, segmented glomeruli or global glomerulosclerosis.

[1] = system: Zucker fatty (fa/fa) rats; assay: Systolic blood pressure (tail cuff) in Zucker fatty rats, 9 month study
Method: (§1) A second study was performed in Zucker rats over a period of 9 months to investigate the longitudinal effects of the drug on systolic blood pressure and various indices of renal function, two of which are exemplified here. In one arm of the study, the drug was given in the diet (50 μmole/kg of diet) from aged 6-7weeks in Zucker fatty (fa/fa) rats, whilst in a second arm of the study, drug treatment as above was delayed until proteinuria had become established after 4 months, indicative of structural damage already present in the kidneys. A third group of Zucker fatty rats and a further group of lean rats were given diet alone throughout the period of study.
(§2) After dosing with the test compound, at monthly intervals measurements were made of systolic blood pressure, urinary total protein and urinary N-acetyl β-D-glucosaminidase (NAG) activity.
Rats were enclosed in custom-built restrainers and placed on a shelf in a warming cabinet, whose temperature was controlled at approximately 30° C. An inflatable cuff with integral pulse sensor was attached to the tail of each rat. After warming for 20-30 min the tail cuff was inflated and deflated automatically and a measurement of systolic blood pressure made using an IITC Non-Invasive Blood Pressure Monitor. This cycle was repeated several times for each rat until stable values of blood pressure were obtained.

[2] = system: Zucker fatty (fa/fa) rats; assay: Urinary total protein (Bio-Rad protein assay, 24 h urine) in Zucker fatty rats, 9 month study
Method: A second study was performed in Zucker rats over a period of 9 months to investigate the longitudinal effects of the drug on systolic blood pressure and various indices of renal function, two of which are exemplified here. […] A third group of Zucker fatty rats and a further group of lean rats were given diet alone throughout the period of study. After dosing with the test compound, at monthly intervals measurements were made of systolic blood pressure, urinary total protein and urinary N-acetyl β-D-glucosaminidase (NAG) activity. Twenty-four hour urine collections, made in metabolism cages, were aliquoted and frozen at −70° C. until required for assay. Urinary protein concentration was measured using the Bio-Rad protein assay as modified for use in a 96-well microtitre plate. The assay is a dye-binding assay based on the differential colour change of a dye in response to various concentrations of protein (Bradford, Anal. Biochem., 72, 248, 1976). After a period of incubation with Dye Reagent, diluted urine samples are read at an optical density of 595 nm using a Molecular Devices multiplate reader.

[3] = system: Zucker fatty (fa/fa) rats; assay: Urinary N-acetyl β-D-glucosaminidase (NAG) activity in Zucker fatty rats, 9 month study
Method: as §1, §2
Twenty-four hour urine collections, made in metabolism cages, were aliquoted and frozen at −70° C. until required for assay.
NAG activity was assayed using a reagent kit on a Hitachi 717 analyser (both supplied by Boehringer Mannheim UK, Lewes). Enzyme activity was measured by monitoring the rate of chlorophenol (570 nm) released from the substrate chlorophenol red-β-D-glucosaminide.

[4] = Zucker fatty (fa/fa) rats treated from the age of 6-7 weeks for 9 months via the diet
[5] = drug treatment commenced after proteinuria had become established

## CN(CCOc1ccc(CC2SC(=O)NC2=O)cc1)c1ccccn1 (stereo not drawn) [Test Compound, 5-[4-[2-(N-methyl-N-(2-pyridyl)amino)ethoxy]benzyl]thiazolidine-2,4-dione]
Obese Zucker fa/fa rats; individual fatty Zucker rats, test compound in diet 2.0-7.0 μmole/kg body weight daily
  Chronic Nephropathy (histopathological severity, kidney): ++
Obese Zucker fa/fa rats; obese Zucker fa/fa rats, diet, 2.0-7.0 μmole/kg daily
  incidence and degree of chronic nephropathy compared to control Zucker fa/fa rats: reduction in the incidence and degree of chronic nephropathy
Obese Zucker fa/fa rats; obese Zucker fa/fa rats, diet, 2.0-7.0 μmole/kg daily, controls 4/9
  hydronephrosis seen in treated rats: No hydronephrosis was seen
[1]; [4]
  development of hypertension: prevented the development of hypertension
[1]; [5]
  systolic blood pressure (further rise): prevented from rising further
[2]; [4]
  rate of development of proteinuria: markedly reduced
[2]; [5]
  rate of increase in the urinary protein concentration: marked reduction of the rate of increase
[3]; [4]
  elevation of urinary NAG activity: markedly reduced
[3]; [5]
  urinary NAG activity (further rise): prevented from rising further
